The term Tmax denotes the time from dosing to the highest level.

One series has as its system lipoprotein lipase (LPL). In words: In vitro release of MPA from prodrugs in rat lymph supplemented with lipoprotein lipase. To be noted: LPL 200 unit/ml, 37° C., n=1; FIG. 10. It counts as in vitro ADME. As for the experimental part:
In order to probe the release of free MPA from TG prodrugs in the lymphatics (the active site of MPA is in lymphocytes that are enriched in the lymphatic system), MPA prodrugs were incubated with rat lymph supplemented with lipoprotein lipase (LPL, 200 unit/ml). LPL is a key enzyme required for the hydrolysis of lipoprotein associated TG in normal physiological conditions and is therefore expected to be a key contributor to lipolysis of the re-esterified Drug-TG construct in plasma, largely via liberation of FAs in the sn-1 and the sn-3 position of the TG-mimetic, prior to drug release from the 2′ positon via esterase hydrolysis. LPL is tethered to lymphocytes or lymphatic/vascular endothelial cells under physiological conditions. In the current in vitro studies, rat lymph was therefore supplemented with LPL to better reflect the in vivo situation. To start hydrolysis, 10 μl of LPL solution (10,000 unit/ml) was added to a mixture of 10 μl of prodrug solution (1 mg/ml dissolved in acetonitrile) and 500 μl of blank Sprague Dawley rat lymph. The solution was incubated at 37° C. Samples (20 μl) of the incubation solution were taken at 0, 5, 10, 15, 30, 60, 90, 120 and 180 minutes post incubation and added to 980 μl of 9:1 (v/v) ACN-water to stop lipolysis. […] The supernatant was analysed by HPLC-MS/MS for MPA concentrations.

A short description of series [1]: Lymphatic transport studies in rats (mesenteric lymph duct cannulated, intraduodenal infusion). The following applies: for Transport of total TST derivatives in lymph (% of dose): intraduodenal infusion, anaesthetised, mesenteric lymph-duct cannulated female SD rats, mean ± SEM (n≥3) or mean ± range (n=2); for Fold increase (compared with control group dosed with TU): lymphatic transport, testosterone series, female SD rats.

Series [2] in a line: Pharmacokinetic (PK) studies in rats after oral gavage (plasma free parent drug). The following applies: for AUC0-24 h fold increase compared with TU group: plasma testosterone exposure; for Tmax / AUC0-24 h: plasma testosterone, mean ± SEM; for AUC0-24 h: normalized to 2 mg/kg equivalent testosterone dose; for Cmax: read-out: Cmax (nmol/L), plasma testosterone, conscious carotid artery cannulated SD female rats, normalized to 2 mg/kg equivalent testosterone dose, mean ± SEM.

The subject of series [3] is porcine pancreatic lipase. In words: In vitro hydrolysis of compounds by porcine pancreatic lipase (stability of monoglyceride forms). It is filed as in vitro ADME. To be noted: simulated intestinal micellar solution, pH 6.5, 37° C., up to 180 minutes; FIG. 9. The method, then:
In vitro hydrolysis of testosterone prodrugs was performed via incubation with porcine pancreatic lipase. Briefly, pancreatic lipase solution was prepared prior to the hydrolysis experiment by dispersion of 1 g porcine pancreatin in 5 ml of lipolysis buffer. The suspension was mixed well and centrifuged at 3500 rpm for 15 minutes at 5° C. to provide a supernatant. An amount of 1000 ml of lipolysis buffer was prepared with 0.474 g of tris-maleate (2 mM), 0.206 g of CaCl2·H2O (1.4 mM) and 8.775 g of NaCl (150 mM) adjusted with NaOH to pH 6.5. To assess the potential for prodrug hydrolysis in the intestine, 20 μl of prodrug solution (1 mg/ml dissolved in acetonitrile), 900 μl of simulated intestinal micellar solution [prepared with 0.783 g of NaTDC (3 mM) and 0.291 g of phosphatidyl choline (0.75 mM) in 500 ml lipolysis buffer] and 100 μl of enzyme solution were incubated at 37° C. […] The supernatant was analysed by HPLC-MS for residual compound concentrations, and the potential products of compound hydrolysis were analysed.
On incubation with digestive enzymes, the monoglycerides forms of the prodrugs are formed very rapidly. The stability in simulated intestinal conditions is therefore better assessed by the stability of the monoglycerides form that is generated by the initial digestion process. […]

For series [4] the following is noted: 'is thought to be'; cited from earlier work.

As for `CCCCCCCCCCCCCCCC(=O)OCC(COC(=O)CCCCCCCCCCCCCCC)OC(=O)CC(C)CC(=O)OCOC(=O)CC/C(C)=C/Cc1c(O)c2c(c(C)c1OC)COC2=O` (stereo not shown) [Compound 10, (E)-1-(1,3-Bis(palmitoyloxy)propan-2-yl) 5-(((6-(4-hydroxy-6-methoxy-7-methyl-3-oxo-1,3-dihydroisobenzofuran-5-yl)-4-methylhex-4-enoyl)oxy)methyl) 3-methyl-pentanedioate], in the series on lipoprotein lipase (LPL), the “Release of MPA on incubation with LPL supplemented rat lymph” value is given as “very rapid”.
With “1-(1,3-Bis(palmitoyloxy)propan-2-yl) 4-((((8R,9S,10R,13S,14S,17S)-10,13-dimethyl-3-oxo-2,3,6,7,8,9,10,11,12,13,14,15,16,17-tetradecahydro-1H-cyclopenta[a]phen-anthren-17-yl)oxy)methyl) 2/3-methylsuccinate [Compounds 13/14]”, in series [1], the “Transport of total TST derivatives in lymph (% of dose)” value (from here on “Transport … (% of dose)”) is listed as 8.0 ± 2.5 % of dose and the “Fold increase (compared with control group dosed with TU)” value amounted to 4.2. For the same compound, in series [2] (SD female rats), the “Systemic exposure of testosterone, fold higher than Compound 12” value was ~13 fold; the “AUC0-24 h fold increase compared with TU group” value is 94.6; the “Tmax” value was 1.4 ± 0.1 h; the “AUC0-24 h” value was 0.6453 ± 0.1449 µM·h. Besides, the Cmax in series [2] was 568 ± 155 nmol/L. Also, the “Stability of the monoglyceride form during in vitro incubation with porcine pancreatic lipase” value in series [3] is “much more stable”.
Consider `CCCCCCCCCCCCCCCC(=O)OCC(COC(=O)CCCCCCCCCCCCCCC)OC(=O)CC(C)CC(=O)OC(C)OC(=O)CC/C(C)=C/Cc1c(O)c2c(c(C)c1OC)COC2=O` (stereo not shown) [Compound 11, (E)-1-(1,3-Bis(palmitoyloxy)propan-2-yl) 5-(1-((6-(4-hydroxy-6-methoxy-7-methyl-3-oxo-1,3-dihydroisobenzofuran-5-yl)-4-methylhex-4-enoyl)oxy)ethyl) 3-methylpentanedioate], for which the “Release of MPA on incubation with LPL supplemented rat lymph” value with lipoprotein lipase (LPL) is recorded as “very rapid”.
Turning to `CCCCCCCCCCCCCCCC(=O)OCC(COC(=O)CCCCCCCCCCCCCCC)OC(=O)CCC(=O)OCO[C@H]1CC[C@H]2[C@@H]3CCC4=CC(=O)CC[C@]4(C)[C@H]3CC[C@]12C` [Compound 12, 1,3-Bis(palmitoyloxy)propan-2-yl ((((8R,9S,10R,13S,14S,17S)-10,13-dimethyl-3-oxo-2,3,6,7,8,9,10,11,12,13,14,15,16,17-tetradecahydro-1H-cyclopenta[a]phenanthren-17-yl)oxy)methyl) succinate], in series [3], the “Stability of the monoglyceride form during in vitro incubation with porcine pancreatic lipase” value is “labile”.
Consider `CCCCCCCCCCC(=O)O[C@H]1CC[C@H]2[C@@H]3CCC4=CC(=O)CC[C@]4(C)[C@H]3CC[C@]12C` [TU, testosterone undecanoate, reference compound], for which, in series [1], the “Transport … (% of dose)” value is 1.9 ± 0.3 % of dose and the “Fold increase (compared with control group dosed with TU)” value is given as 1.0. Besides, in series [2] (SD female rats), the “AUC0-24 h fold increase compared with TU group” value worked out at 1.0, the time to peak (Tmax) amounted to 1.5 ± 0.0 h and the “AUC0-24 h” value amounted to 0.0068 ± 0.0004 µM·h. Besides, in series [2], the Cmax came to 5.6 ± 0.5 nmol/L. Further, in series [4], the “Bioavailability of testosterone after oral administration of the undecanoate ester” value was < 5%.
Consider `C[C@]12CC[C@H]3[C@@H](CCC4=CC(=O)CC[C@@]43C)[C@@H]1CC[C@@H]2O` [Testosterone, testosterone], for which the “Transport … (% of dose)” value in series [1] is “Below LOQ*”.

These data come from patent US11738087B2, “Lymph directing prodrugs” (Monash University, priority 2015, dated 2023).
